{"source": "patent EP1146906B1", "about": "“MUCOSAL DELIVERY SYSTEM” (Alk-Abelló A/S, priority 1999, dated 2000)", "origin": "cited, not measured here", "conditions": "compared to the parenteral equivalent", "note": "Like-named read-outs stand apart in the source and are kept apart here."}
{"substance": "desmopression", "values": [{"measurement": "bioavailability", "setting": "after nasal administration", "result": 10, "unit": "%"}, {"measurement": "bioavailability", "setting": "after oral administration", "result": 1, "unit": "%"}]}
